# Measured values taken from patent US20260217706A1, “HETEROCYCLIC COMPOUNDS, PREPARATION METHOD THEREFOR AND USE THEREOF” (GUANGZHOU YUFAN NANTU BIOTECHNOLOGIES CO., LTD, priority 2023, published 2026).
# Biological target: CBL-B protein (Homo sapiens, UniProt Q13191)
# Test: CBL-B binding experiment (Streptavidin-Tb cryptate / Ligand L1 displacement)
# Details: 8 nM CBL-B protein, 25° C., 60 minutes; Ki=Relative IC50/2
# Method: The reaction system mainly includes 1× buffer, 20 mM HEPES pH 7.5, 150 mM NaCl, 0.01% Triton X-100, 0.5 mM TCEP, and 0.1% ug/ml BSA. The compound is continuously diluted with DMSO for 10 concentration points, and 150 nL is transferred to the experimental plate. The experimental reaction begins after adding 8 nM of CBL-B protein and the reaction is carried out at 25° C. for 60 minutes. […] After an additional 60 minutes of incubation at room temperature, the experimental plate is read using an EnVision plate. The luminescence signal values were converted to percentage inhibition rates. Inhibition %=(Sample value−Maximum value)/(Minimum value−Maximum value)×100. The minimum value refers to the measured value in the wells without CBL-B protein but with DMSO and Ligand, while the maximum value refers to the measured value in the wells with DMSO, CBL-B protein, and Ligand. The IC50 values are calculated by XLFit (version 5.3.1.3) in Excel. Equation: Y=Bottom+(Top−Bottom)/(1+(IC50/X)^HillSlope); Ki=Relative IC50/2.
# CBL-B protein, sequence (Q13191 whole entry): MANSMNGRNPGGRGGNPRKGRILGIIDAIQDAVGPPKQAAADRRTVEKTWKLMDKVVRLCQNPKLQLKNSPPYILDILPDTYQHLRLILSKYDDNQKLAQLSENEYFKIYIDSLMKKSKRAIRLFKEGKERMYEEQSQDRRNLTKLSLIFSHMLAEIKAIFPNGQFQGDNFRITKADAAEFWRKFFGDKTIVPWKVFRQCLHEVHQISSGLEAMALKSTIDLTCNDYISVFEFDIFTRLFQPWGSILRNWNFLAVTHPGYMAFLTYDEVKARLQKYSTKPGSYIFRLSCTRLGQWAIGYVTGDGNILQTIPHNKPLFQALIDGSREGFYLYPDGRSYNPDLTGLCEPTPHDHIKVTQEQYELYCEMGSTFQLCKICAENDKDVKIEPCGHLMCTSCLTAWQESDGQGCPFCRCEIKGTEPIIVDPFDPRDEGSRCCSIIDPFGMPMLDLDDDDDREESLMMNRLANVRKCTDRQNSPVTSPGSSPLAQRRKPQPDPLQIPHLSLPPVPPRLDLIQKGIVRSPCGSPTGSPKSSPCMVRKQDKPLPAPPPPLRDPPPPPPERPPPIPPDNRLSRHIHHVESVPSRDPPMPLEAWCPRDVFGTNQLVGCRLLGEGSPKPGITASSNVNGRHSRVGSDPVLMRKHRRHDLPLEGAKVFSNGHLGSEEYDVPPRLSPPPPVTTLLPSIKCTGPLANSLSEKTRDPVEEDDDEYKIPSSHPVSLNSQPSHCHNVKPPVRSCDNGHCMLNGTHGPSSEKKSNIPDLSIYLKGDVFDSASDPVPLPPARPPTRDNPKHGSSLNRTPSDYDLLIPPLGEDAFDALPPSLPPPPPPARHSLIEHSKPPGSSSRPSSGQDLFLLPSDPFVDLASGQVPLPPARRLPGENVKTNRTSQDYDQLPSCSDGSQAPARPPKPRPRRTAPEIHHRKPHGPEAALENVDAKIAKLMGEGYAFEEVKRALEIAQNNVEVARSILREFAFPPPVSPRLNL
row,SMILES,Ki [nM]
1,"CN(Cc1cc2c(C(F)(F)F)cn(-c3cccc(C4(c5nncn5C)CCC4)c3)c(=O)c2[nH]1)CC(F)(F)F [Compound T057, 2-((methyl(2,2,2-trifluoroethyl)amino)methyl)-6-(3-(1-(4-methyl-4H-1,2,4-triazol-3-yl)cyclobutyl)phenyl)-4-(trifluoromethyl)-1,6-dihydro-7H-pyrrolo[2,3-c]pyridin-7-one]",< 50
2,"C[C@@H]1CCN(Cc2cc3c(C(F)(F)F)cn(-c4cccc(C5(c6nncn6C)CCC5)c4)c(=O)c3[nH]2)CC1(F)F [Compound T115, (R)-2-((3,3-difluoro-4-methylpiperidin-1-yl)methyl)-6-(3-(1-(4-methyl-4H-1,2,4-triazol-3-yl)cyclobutyl)phenyl)-4-(trifluoromethyl)-1,6-dihydro-7H-pyrrolo[2,3-c]pyridin-7-one]",50 to 100
3,"Cn1cnnc1C1(c2cccc(-n3cc(C(F)(F)F)c4cc(CN5CC(F)CC(CO)C5)[nH]c4c3=O)c2)CCC1 (stereo not drawn) [Compound T106, 2-[[3-fluoro-5-(hydroxymethyl)-1-piperidyl]methyl]-6-[3-[1-(4-methyl-1,2,4-triazol-3-yl)cyclobutyl]phenyl]-4-(trifluoromethyl)-1H-pyrrolo[2,3-c]pyridin-7-one]",< 50
4,"Cn1cnnc1C1(c2cccc(-n3cc(C(F)(F)F)c4cc(CN5C[C@H]6C[C@@H]5CO6)[nH]c4c3=O)c2)CCC1 [Compound T032, 6-[3-[1-(4-methyl-1,2,4-triazol-3-yl)cyclobutyl]phenyl]-2-[[(1R,4R)-2-oxa-5-azabicyclo[2.2.1]heptan-5-yl]methyl]-4-(trifluoromethyl)-1H-pyrrolo[2,3-c]pyridin-7-one]",< 50
5,"C[C@H]1CN(Cc2cc3c(C4CC4)cn(-c4cccc(C5(Cc6nncn6C)COC5)c4)c(=O)c3[nH]2)CCC1(F)F [Compound T079, (S)-4-cyclopropyl-2-((4,4-difluoro-3-methylpiperidin-1-yl)methyl)-6-(3-(3-((4-methyl-4H-1,2,4-triazol-3-yl)methyl)oxetan-3-yl)phenyl)-1,6-dihydro-7H-pyrrolo[2,3-c]pyridin-7-one]",< 50
6,"C[C@H]1CCCN(Cc2cc3c(C(F)(F)F)cn(-c4ccc([C@]5(c6nncn6C)C[C@H](C)C5)s4)c(=O)c3[nH]2)C1 [Compound T074, 6-(5-((1s,3R)-3-methyl-1-(4-methyl-4H-1,2,4-triazol-3-yl)cyclobutyl)thiophen-2-yl)-2-(((S)-3-methylpiperidin-1-yl)methyl)-4-(trifluoromethyl)-1,6-dihydro-7H-pyrrolo[2,3-c]pyridin-7-one]",< 50
7,"CC(C)CN(Cc1cc2c(C(F)(F)F)cn(-c3cccc(C4(c5nncn5C)CCC4)c3)c(=O)c2[nH]1)CC(C)C [Compound T098, 2-[(diisobutylamino)methyl]-6-[3-[1-(4-methyl-1,2,4-triazol-3-yl)cyclobutyl]phenyl]-4-(trifluoromethyl)-1H-pyrrolo[2,3-c]pyridin-7-one]",< 50
8,"C=Cc1cn(-c2cccc([C@]3(c4nncn4C)C[C@@H](C)C3)c2)c(=O)c2[nH]c(CN3CCC[C@H](C)C3)cc12 [Compound T004, 6-(3-((1s,3R)-3-methyl-1-(4-methyl-4H-1,2,4-triazol-3-yl)cyclobutyl)phenyl)-2-(((S)-3-methylpiperidin-1-yl)methyl)-4-vinyl-1,6-dihydro-7H-pyrrolo[2,3-c]pyridin-7-one]",< 50
9,"Cn1cnnc1C1(c2cccc(-n3cc(C(F)(F)F)c4cc(CN5C6CCCC5CC6)[nH]c4c3=O)c2)CCC1 [Compound T052, 2-(8-azabicyclo[3.2.1]octan-8-ylmethyl)-6-[3-[1-(4-methyl-1,2,4-triazol-3-yl)cyclobutyl]phenyl]-4-(trifluoromethyl)-1H-pyrrolo[2,3-c]pyridin-7-one]",< 50
10,"Cn1cnnc1C1(c2cccc(-n3cc(C(F)(F)F)c4cc(CN5CCCC(C(F)F)C5)[nH]c4c3=O)c2)CCC1 (racemic) [Compound T113, 6-[3-[1-(4-methyl-1,2,4-triazol-3-yl)cyclobutyl]phenyl]-2-[[rac-(3R)-3-(difluoromethyl)-1-piperidyl]methyl]-4-(trifluoromethyl)-1H-pyrrolo[2,3-c]pyridin-7-one]",< 50
11,"C[C@@H](NCc1cc2c(C(F)(F)F)cn(-c3cccc(C4(c5nncn5C)CCC4)c3)c(=O)c2[nH]1)C(C)(C)C (racemic) [Compound T044, 6-[3-[1-(4-methyl-1,2,4-triazol-3-yl)cyclobutyl]phenyl]-2-[[[rac-(1R)-1,2,2-trimethylpropyl]amino]methyl]-4-(trifluoromethyl)-1H-pyrrolo[2,3-c]pyridin-7-one]",< 50
12,"Cn1cnnc1C1(c2cccc(-n3cc(C(F)(F)F)c4cc(CN5C[C@@H]6C[C@H]5CO6)[nH]c4c3=O)c2)CCC1 [Compound T031, 6-[3-[1-(4-methyl-1,2,4-triazol-3-yl)cyclobutyl]phenyl]-2-[[(1 S,4S)-2-oxa-5-azabicyclo [2.2.1]heptan-5-yl]methyl]-4-(trifluoromethyl)-1H-pyrrolo[2,3-c]pyridin-7-one]",< 50

# The next lines start with the values.
row,Ki [nM],SMILES
1,< 50,"CO[C@H]1CCN(Cc2cc3c(C(F)(F)F)cn(-c4cccc(C5(c6nncn6C)CCC5)c4)c(=O)c3[nH]2)C[C@H]1F [Compound T108, 2-(((3R,4S)-3-fluoro-4-methoxypiperidin-1-yl)methyl)-6-(3-(1-(4-methyl-4H-1,2,4-triazol-3-yl)cyclobutyl)phenyl)-4-(trifluoromethyl)-1,6-dihydro-7H-pyrrolo[2,3-c]pyridin-7-one]"
2,< 50,"C[C@H]1CCCN(Cc2cc3c(S(C)(=O)=O)cn(-c4cccc(C5(Cc6nncn6C)COC5)c4)c(=O)c3[nH]2)C1 [Compound T089, 2-[[(3S)-3-methyl-1-piperidyl]methyl]-4-methylsulfonyl-6-[3-[3-[(4-methyl-1,2,4-triazol-3-yl)methyl]oxetan-3-yl]phenyl]-1H-pyrrolo[2,3-c]pyridin-7-one]"
3,< 50,"C[C@H]1CCCN(Cc2cc3c(C(F)(F)F)cn(-c4cccc(-c5ccccc5-c5nncn5C)c4)c(=O)c3[nH]2)C1 [Compound T076, 2-[[(3S)-3-methyl-1-piperidyl]methyl]-6-[3-[2-(4-methyl-1,2,4-triazol-3-yl)phenyl]phenyl]-4-(trifluoromethyl)-1H-pyrrolo[2,3-c]pyridin-7-one]"
4,< 50,"CC1CC(c2cc(C(N)=O)cc(-n3cc(C(F)(F)F)c4cc(CN5CCC[C@H](C)C5)[nH]c4c3=O)c2)(c2nncn2C)C1 (stereo partly drawn) [Compound T127, 3-[3-methyl-1-(4-methyl-1,2,4-triazol-3-yl)cyclobutyl]-5-[2-[[(3S)-3-methyl-1-piperidyl]methyl]-7-oxo-4-(trifluoromethyl)-1H-pyrrolo[2,3-c]pyridin-6-yl]benzamide]"
5,< 50,"Cn1cnnc1C1(c2cccc(-n3cc(C(F)(F)F)c4cc(CN5CCC[C@@H](F)C5)[nH]c4c3=O)c2)CCC1 [Compound T046, 2-[[(3R)-3-fluoro-1-piperidyl]methyl]-6-[3-[1-(4-methyl-1,2,4-triazol-3-yl)cyclobutyl]phenyl]-4-(trifluoromethyl)-1H-pyrrolo[2,3-c]pyridin-7-one]"
6,50 to 100,"C[C@H]1CCCN(Cc2cc3c(C4CC4)cn(-c4cccc([C@]5(Cc6nncn6C)C[C@@H](C)C5)c4)c(=O)c3[nH]2)C1 [Compound T036, 4-cyclopropyl-6-(3-((1r,3S)-3-methyl-1-((4-methyl-4H-1,2,4-triazol-3-yl)methyl)cyclobutyl)phenyl)-2-(((S)-3-methylpiperidin-1-yl)methyl)-1,6-dihydro-7H-pyrrolo[2,3-c]pyridin-7-one]"
